Reference: publication PMC4153969, “A Novel Suspension Formulation Enhances Intestinal Absorption of Macromolecules Via Transient and Reversible Transport Mechanisms” (Pharmaceutical Research, 2014)

What was measured:
Cynomolgus monkeys = experiment: 9-month chronic toxicity study, daily oral enteric-coated capsules; type: in vivo, Cynomolgus monkeys (Macaca fasicularis); details: compared to the negative control group (olive oil)
Method: During the dosing period, animals were fasted for 8 to 10 h prior to dosing, and the first feeding was given 2 h after dosing. Monkeys were observed twice daily for mortality, morbidity, and clinical signs of adverse health effects and qualitative food consumption. Weekly examinations were performed on each animal before drug administration and before terminal sacrifice. Pre-dose body weights were recorded (week −1) and weekly thereafter. Blood samples (~5 ml) were collected for hematology and serum chemistry from the femoral vein before drug administration and from surviving animals prior to the terminal necropsy.
A complete ophthalmic examination was performed on each monkey by a Diplomat of the American College of Veterinary Ophthalmologist veterinarian before animal selection/group assignment (pretest) and again, prior to study termination.
Electrocardiograms (ECGs) were obtained twice pre-study and were analyzed by a veterinary cardiologist for the presence of significant abnormalities. ECGs were also obtained following the 1st dose and at the 3, 6, and 9 months of dosing. Standard ECGs (10 Lead) were recorded at 50 mm/s. Using Lead II (or another appropriate lead), the RR, PR, and QT intervals, and QRS duration were measured and heart rate was determined. The QT interval was calculated using Bazett’s Rule. […]

in vivo [1] = experiment: in vivo
Method: Octreotide acetate in saline was also injected subcutaneously to this animal model.
The octreotide immunoassay is based on a single-step, extraction-free, simultaneous assay procedure (Peninsula Laboratories, Division of Bachem, San Carlos, CA) designed to quantify octreotide concentrations. Briefly, octreotide standards (0.05–6.25 ng/mL) and rat plasma samples were diluted 1:10 with PBS, followed by addition of octreotide anti-rabbit antiserum antibody, biotinylated octreotide tracer, and assay buffer. Samples were washed and incubated with streptavidin–HRP. Optical density was read at a dual absorbance of 450 nm and 630 nm using an Enzyme-Linked Immunoassay (ELISA) reader (Multiskan EX Labsystems; Thermo Electron Corporation, Milford, MA) after addition of TMB solution and acidic stopping solution.
Results were expressed as mean ± SE. The area under plasma concentration–time profile measured from time zero to the last measurable plasma concentration was calculated according to the linear trapezoidal rule. Relative enteral bioavailability (rBA) following intra-jejunal administration of the OS formulation to rats was calculated compared with SC injection as follows: rBA%=AUCjejunum/AUCSC×DoseSC/Dosejejunum×100

in vivo [2] = details: cynomolgus monkey, plasma, sc, 0.1 mg, plasma octreotide, SC injection 0.1 mg daily
Method: Enteric-coated capsules containing octreotide (20 mg)/OS or olive oil were administrated daily per os to fasted monkeys for 9 months, and swallowed with 10 mL water. In addition, a 1 mL ampule containing octreotide acetate at a concentration of 0.1 mg/mL (Sandostatin®, Novartis Pharmaceuticals, East Hanover, NJ) was administered by daily subcutaneous (SC) injection to another monkeys group. Oral administration of OS in rodent studies was limited due to the lack of properly enteric coated mini-gelatin capsules. Thus, the OS, containing fluorescent marker molecules (see below) or octreotide was enterally injected via implanted cannulas.
On Day 1 and after 3, 6 and 9 months, whole-blood samples (3.0 mL) were collected at routine intervals after completion of oral octreotide dosing. Plasma octreotide levels were determined by a validated liquid chromatographic spectrometric method (PPD Laboratories, Richmond, VA) as described elsewhere ([18]). The maximum plasma concentration (Cmax) and time to Cmax (Tmax) were derived from the data. The area under the curve (AUC) from zero to the last sample with a concentration ≥LOQ [AUC(0-t)] was calculated using the linear trapezoidal method. Analysis of plasma octreotide concentration vs. time was performed using SAS® for Windows® Version 9.3. The primary pharmacokinetic end point variables (Cmax and AUC0-t) were compared using analysis of variance (ANOVA) with treatment time (1, 180, 270-d) as a within-subject (repeated measures)-factor and sex as a between-subject factor.

With `C[C@@H](O)[C@@H]1NC(=O)[C@H](CCCCN)NC(=O)[C@@H](Cc2c[nH]c3ccccc23)NC(=O)[C@H](Cc2ccccc2)NC(=O)[C@@H](NC(=O)[C@H](N)Cc2ccccc2)CSSC[C@@H](C(=O)N[C@H](CO)[C@@H](C)O)NC1=O` [octreotide acetate] the “clinical observation: hair and skin” value (Cynomolgus monkeys; both sexes) was “increased incidence of sparse hair and red discoloured skin”, the “clinical observation: feces” value (Cynomolgus monkeys) was “higher incidence of watery feces” and the AUC(0-t) (in vivo [1]; Sprague-Dawley, rat, plasma, sc, 0.172 mg/kg) was 205 ng·h/mL. The “change in rat plasma peptide concentrations” value (in vivo [1]; enteral dosing in saline solution without OS, data not shown) was “negligible changes”, the AUC(0-t) (in vivo [2]; female, Day 1, female monkeys) was 64.3 ± 5.3 ng·h/mL and the AUC(0-t) (in vivo [2]; female, Day 180, female monkeys) was 60.8 ± 6.9 ng·h/mL. The AUC(0-t) (in vivo [2]; female, Day 270, female monkeys) was 49.6 ± 3 ng·h/mL, the AUC(0-t) (in vivo [2]; male, Day 1, male monkeys) was 41.7 ± 8.6 ng·h/mL and the AUC(0-t) (in vivo [2]; male, Day 180, male monkeys) was 46.2 ± 5.4 ng·h/mL. For the same compound, the AUC(0-t) (in vivo [2]; male, Day 270, male monkeys) was 51.3 ± 11.3 ng·h/mL.
